The text below walks through data of PubChem BioAssay (NCI).

Structures are written as SMILES. Values joined by “and” are separate entries in the source; they are usually repeats but may differ in a detail not shown here. Identical values can stand only once.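 Compound exposure: 48 hours, 5 concentrations, 96-well plates. The concentration for 50% growth inhibition is given as GI50. TGI denotes the concentration required for complete inhibition of growth.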

Test systems include UACC-62 melanoma; OVCAR-8 ovarian; U251 CNS; A498 renal; OVCAR-4 ovarian; HCC-2998 colon; NCI-H522 lung; NCI-H23 lung; A549 NSCLC; NCI-H226 lung.
Assay in all cases: NCI-60 cell line screen, 48 h

Take `Cc1cc(Cl)ccc1OCC(=O)Oc1c(Cl)c(Cl)c(Cl)c(Cl)c1Cl`: the TGI in the experiment with UACC-62 melanoma amounted to 46.6 µM; with OVCAR-8 ovarian it was 66.8 µM; in the experiment on U251 CNS it was 70.4 µM; in the experiment on A498 renal it was 62.9 µM; in the experiment with OVCAR-4 ovarian, 92.1 µM; in the experiment on HCC-2998 colon, 48.9 µM. Besides, the TGI was 48.4 µM with NCI-H522 lung, 95.5 µM with NCI-H23 lung, 66.3 µM in the experiment on A549 NSCLC and 53.8 µM in the experiment on NCI-H226 lung.
`CC(C)C(OC(=O)c1cc(NC(=S)c2ccccc2)ccc1Cl)C(C)C`: the TGI was 38.9 µM in the experiment on UACC-62 melanoma; above 100 µM in the experiment on OVCAR-8 ovarian; above 61.5 µM with U251 CNS; 58.4 µM in the experiment with A498 renal; above 100 µM in the experiment with OVCAR-4 ovarian; above 53.1 µM with HCC-2998 colon. Moreover, the TGI is 29.4 µM with NCI-H522 lung, 35.7 µM in the experiment on NCI-H23 lung, above 94.7 µM in the experiment with A549 NSCLC and 45.5 µM in the experiment on NCI-H226 lung.
Consider `COc1cc2c3c(n(CCCn4cccn4)c(=O)c2cc1OC)-c1cc2c(cc1C3=O)OCO2`, for which the GI50 was 0.359 µM in the experiment with UACC-62 melanoma; 2.83 µM in the experiment on OVCAR-8 ovarian; 0.724 µM with U251 CNS; 2.48 µM in the experiment on A498 renal; 19.7 µM in the experiment on OVCAR-4 ovarian; 7.13 µM with HCC-2998 colon. Besides, the GI50 is 2.07 µM with NCI-H522 lung, 0.807 µM in the experiment with NCI-H23 lung, 2.87 µM with A549 NSCLC and 0.922 µM in the experiment with NCI-H226 lung. Further, the TGI is 1.78 µM with UACC-62 melanoma; 54.7 µM in the experiment with OVCAR-8 ovarian; above 40.4 µM in the experiment on U251 CNS; 14.2 µM in the experiment on A498 renal; 66.1 µM in the experiment with OVCAR-4 ovarian; 64 µM in the experiment on HCC-2998 colon. Also, the TGI with NCI-H522 lung was 63.7 µM; in the experiment on NCI-H23 lung it was 4.38 µM; in the experiment with A549 NSCLC, above 100 µM; with NCI-H226 lung it was 9.51 µM.
As to `CN(C)c1ccc2c(SCC(=O)OCC(=O)[C@@]3(O)CC[C@H]4[C@@H]5CCC6=CC(=O)C=C[C@]6(C)[C@H]5C(=O)C[C@@]43C)c3ccc(N(C)C)cc3nc2c1`, the TGI in the experiment with UACC-62 melanoma was 54.6 µM; in the experiment on OVCAR-8 ovarian it was 37 µM; in the experiment on U251 CNS it was above 100 µM; in the experiment with A498 renal, above 96.2 µM; in the experiment on OVCAR-4 ovarian, above 72.1 µM; in the experiment on HCC-2998 colon, above 100 µM. For the same compound, the TGI with NCI-H522 lung is above 100 µM; in the experiment with NCI-H23 lung, 64.9 µM; with A549 NSCLC, above 100 µM; in the experiment on NCI-H226 lung, 47.5 µM.
As for `CCCCCCCCCCCCCCCC[N+](C)(C)C`, the GI50 in the experiment on UACC-62 melanoma is 0.258 µM and 1.43 µM; in the experiment with OVCAR-8 ovarian, 0.212 µM; in the experiment on U251 CNS, 0.139 µM and 0.567 µM; with A498 renal, 1.96 µM; with OVCAR-4 ovarian it was 0.232 µM and 1.52 µM; in the experiment on HCC-2998 colon it was 1.71 µM. Also, the GI50 in the experiment with NCI-H522 lung was 0.139 µM; with NCI-H23 lung, 0.292 µM and 1.46 µM; with NCI-H226 lung, 1.13 µM. Besides, the TGI is 1.16 µM and 3.38 µM with UACC-62 melanoma; 0.536 µM in the experiment on OVCAR-8 ovarian; 0.271 µM and 1.97 µM in the experiment with U251 CNS; 5.25 µM in the experiment on A498 renal; 1.03 µM and 5.95 µM in the experiment on OVCAR-4 ovarian; 3.73 µM in the experiment with HCC-2998 colon. Further, the TGI was 0.329 µM with NCI-H522 lung; 1.51 µM and 3.8 µM with NCI-H23 lung; 0.417 µM and 3.78 µM with A549 NSCLC; 3.07 µM in the experiment with NCI-H226 lung.
With `CNC1=C(Br)C(=O)C2=C(C1=O)C1C3=C(C(=O)C=CC3=O)C2c2ccccc21` (stereo not drawn), the GI50 with UACC-62 melanoma is 2.52 µM; with OVCAR-8 ovarian, 2.99 µM; with U251 CNS it was 2.12 µM; with A498 renal, 24.9 µM; in the experiment on OVCAR-4 ovarian, 1.76 µM; in the experiment with HCC-2998 colon, 3.74 µM. Further, the GI50 in the experiment on NCI-H522 lung was 6.7 µM; in the experiment on NCI-H23 lung, 5.76 µM; in the experiment on A549 NSCLC, 3.02 µM; in the experiment on NCI-H226 lung, 5.19 µM. Further, the TGI was determined as 6.85 µM in the experiment with UACC-62 melanoma; 8.93 µM in the experiment with OVCAR-8 ovarian; 5.01 µM in the experiment with U251 CNS; 40.7 µM in the experiment with A498 renal; 4.93 µM with OVCAR-4 ovarian; 11.4 µM in the experiment on HCC-2998 colon. Besides, the TGI was above 22.4 µM in the experiment on NCI-H522 lung, 25.9 µM with NCI-H23 lung and 14.4 µM in the experiment on NCI-H226 lung.
`O=C(Oc1ccccc1Cl)c1cccnc1Nc1ccnc(C(F)(F)F)c1`: the GI50 is 6.13 µM with UACC-62 melanoma; 14.7 µM with OVCAR-8 ovarian; 17.6 µM in the experiment on U251 CNS; 17.3 µM in the experiment with A498 renal; 27.8 µM in the experiment on OVCAR-4 ovarian; 15.6 µM in the experiment with HCC-2998 colon. Also, the GI50 in the experiment with NCI-H522 lung is 6.6 µM; in the experiment on NCI-H23 lung, 8.79 µM; in the experiment on A549 NSCLC, 30.2 µM; with NCI-H226 lung it was 2.61 µM. Also, the TGI in the experiment on UACC-62 melanoma is 18.7 µM; in the experiment with OVCAR-8 ovarian it was 47 µM; in the experiment on U251 CNS, 32.9 µM; with A498 renal, 37.2 µM; in the experiment with OVCAR-4 ovarian, 95.8 µM; with HCC-2998 colon it was 30 µM. For the same compound, the TGI in the experiment with NCI-H522 lung is 23.3 µM; with NCI-H23 lung, 23.7 µM; in the experiment on A549 NSCLC it was above 100 µM; with NCI-H226 lung, 8.07 µM.
Regarding `CCOc1ccccc1N=C(NC(=O)CC)SC`, the GI50 with UACC-62 melanoma was above 100 µM; in the experiment on OVCAR-8 ovarian, above 10 µM; in the experiment on U251 CNS it was above 100 µM; with A498 renal, above 100 µM; in the experiment on OVCAR-4 ovarian, above 10 µM; with HCC-2998 colon, above 100 µM. The GI50 is above 100 µM with NCI-H522 lung, above 10 µM in the experiment with NCI-H23 lung, above 100 µM in the experiment on A549 NSCLC and above 100 µM in the experiment with NCI-H226 lung. The TGI with UACC-62 melanoma, in the experiment on OVCAR-8 ovarian, in the experiment with U251 CNS, in the experiment on A498 renal, in the experiment on OVCAR-4 ovarian and with HCC-2998 colon was above 100 µM each time. Also, the TGI with NCI-H522 lung, in the experiment on NCI-H23 lung, with A549 NSCLC and in the experiment on NCI-H226 lung was above 100 µM throughout.
As to `C/C(=C\c1ccccc1)C(O)S(=O)(=O)O` (stereo not drawn), the TGI with UACC-62 melanoma, in the experiment with OVCAR-8 ovarian, in the experiment on U251 CNS, in the experiment with A498 renal, in the experiment on OVCAR-4 ovarian and in the experiment on HCC-2998 colon was above 100 µM in each case. In addition, the TGI in the experiment with NCI-H522 lung, in the experiment with NCI-H23 lung, in the experiment on A549 NSCLC and in the experiment with NCI-H226 lung was above 100 µM throughout.
